From patent publication US11572351B1, “Bis-Schiff base compositions and formulations” (Systima Technologies, Inc., priority 2016, dated 2023)

What was measured:
[1] = Melt viscosity versus temperature, parallel plate rheometer, temperature ramp; type: physicochemical; details: ramp 2° C. per minute, strain 0.01%, 10.00 rad/s; processing window about 100° C. up to at least 200° C.
Description: (§1) In some embodiments, the chemical composition may have a low viscosity, such as below about 100,000 cP at temperatures below 170° C. The viscosity may be measured by rotational rheometry by acquiring viscosity versus temperature curves on a parallel plate rheometer, commercially available from TA Instruments (New Castle, Del.) at a controlled strain of 0.01% and an angular frequency of 10.00 radians per second (rad/s) by heating samples at a rate of 2° C. per minute to the isothermal temperature specified. In one or more embodiments, the chemical composition may have a melt viscosity of less than or equal to 500 cP at 125° C. as measured by rotation rheometry. In one or more embodiments, the chemical composition may have a melt viscosity of less than or equal to 100,000 cP at 125° C. as measured by rotation rheometry. For instance, the chemical composition may have a melt viscosity of from 10,000 to 100,000 cP, from 40,000 to 80,000 cP, or from 20,000 to 50,000 cP at 125° C. In some particular embodiments, the chemical composition may have an extremely low viscosity at less than 200° C., such as less than 500 cP. In some particular embodiments, the chemical composition may have a melt viscosity of from 100 to 500 cP, from 200 to 400 cP, or from 300 to 500 cP at 125° C. […]

[2] = Viscosity stability during 4 hour isothermal dwell at 120° C., parallel plate rheometer; type: physicochemical; details: isothermal 120° C., viscosity stayed 150 to 200 cP
Description: as §1

viscosity (melt flow viscosity) [1]	period of time of stable low melt viscosity [2]	Compound
less than 1000 cP	at least 4 hours	C(=N\c1ccc(Oc2cccc(Oc3ccc(/N=C/c4ccco4)cc3)c2)cc1)/c1ccco1 [Example 1]
less than 1000 cP	at least 4 hours	C(=N\c1cccc(Oc2cccc(Oc3cccc(/N=C/c4ccco4)c3)c2)c1)/c1ccco1 [Example 2]
